Laboratory results reported in patent US6355616B1, “Derivative compounds derived from or based on bactericidal/permeability-increasing protein” (priority 1999, dated 2002).
Where two headings read alike, the source gives them in different places. Non-standard residues stand in square brackets, D forms with d. Residues, ends and D or L forms follow the SMILES beside them. Aoc = NCCCCCCCC(=O)O

Legend:
[1] = tested on: Candida albicans designated CA-1, Strain SLU-1; format: cell-based
Procedure: In each broth microdilution assay screening procedure, a colony of Candida albicans designated CA-1, Strain SLU-1 that was received from the laboratories of G. Matuschak and A. Lechner, St. Louis University Hospital, St. Louis, Mo., where the strain was maintained, was inoculated into a tube containing 5 mL Sabouraud Dextrose broth (2% dextrose, 1% neopeptone) and incubated at 37° C. with shaking. The overnight culture was diluted 1:50 into 5 ml of fresh broth and incubated for 3 hours at 37° C. to exponential phase growth. Organisms were pelleted by centrifugation in a Beckman J-6M centrifuge for 5 minutes at 3000 rpm (1500×g) and the pellets were resuspended in 5 mL phosphate buffered saline (PBS) and the optical density (OD) at 570 nm was determined. On the basis of the determination that one OD unit equals 3×10^7 colony forming units/mL (CFU/mL), yeast cells were diluted to 5×10^3 CFU/mL in Sabouraud Dextrose broth (SBD).
Derivatized peptide sequences based on Domain III of BPI to be screened which were originally constituted in Dulbecco's-PBS, were two-fold serially diluted in SDB starting from a concentration of 128 μg/mL. Equal volumes (100 μL) of yeast suspension as prepared above and derivatized peptide solution were added to wells of a 96-well sterile, flat bottom, non-pyrogenic tissue culture microtiter plate (Costar, Cambridge, Mass.) to reach a final volume of 200 μL/well. The plate was incubated on a shaker at 37° C. for 24 hours. All assays were performed in triplicate. Following the incubation period, plates were read in an ELISA plate reader at 595 nm wavelength to determine the minimum inhibitory concentration (MIC), i.e., the lowest concentration required to reduce the optical density at 595 nm to below 0.1 OD.

Candida albicans SLU-1 = assay: Radial diffusion assay; format: cell-based
Procedure: In the radial diffusion assay procedures, the CA-1 cultures and derivatized peptide solutions were prepared as in the broth microdilution assay procedure described above, i.e., CA-1 was grown to exponential phase in SDB. Ten (10) mL of molten underlayer agarose comprising 3% Sabouraud Dextrose broth, 1% agarose (Pharmacia, Piscataway, N.J.), 0.02% Tween 20, and 10 mM sodium phosphate at pH 7.4, was added to polystyrene tubes and maintained in a 56° C. water bath until the addition of yeast. Tubes were cooled to approximately 45° C., yeast were added to give a final concentration of 1×10^6 CFU/mL, and the tubes were mixed again by inverting. The contents were poured into leveled, square petri dishes and distributed evenly. […] A series of wells were punched into the hardened agarose using a sterile 3 mm punch attached to a vacuum apparatus to achieve a uniform, 3 mm diameter well.
Derivatized peptide sequences to be assayed were 2-fold serially diluted in 10 mM Dulbecco's PBS (D-PBS) starting from a concentration of approximately […]. Five μL of each dilution were added to each well and the plates were incubated at 37° C. for 3 hours to allow for complete diffusion of the test compounds. An overlayer of 10 mL of molten agarose comprising 6% Sabouraud Dextrose broth, 1% agarose, and 10 mM sodium phosphate, pH 7.4, (at approximately 45° C.) was then added and plates were incubated overnight at 37° C. Following this overnight incubation, a dilute Coomassie solution was poured into the plates and allowed to stain for 24 hours to enhance visualization of the zones.
Clear zones of growth inhibition around each well were measured with calipers. The actual area of growth inhibition (mm^2) was calculated by subtracting the area of the well. Table II below sets out the results of the radial diffusion assays for a series of tested peptide-based constructs in terms of the number of picomoles (pmol) of compound required to establish a 30 mm^2 area of growth inhibition of Candida albicans SLU-1 calculated by PROBIT analysis (e.g., calculated from regression of the linear portion of log-concentration dose-response curve, log pmol/well vs. net area of inhibition).

Candida albicans, SLU-1 = assay: 28-day comparative survival efficacy study in mice systemically infected with Candida albicans; format: in vivo, male DBA/2 mice; conditions: for improvement in mortality compared with dextrose-treated controls: mice infected iv with C. albicans SLU-1, two doses less than 5 mg/kg, initial experiments (p>0.5)
Procedure: Derivatized peptide-based constructs are tested for activity upon oral administration (oral activity) in a 28-day comparative survival efficacy study in mice systemically infected with Candida albicans. Specifically, male DBA/2 mice (Charles River Laboratories) six weeks of age are dosed with 7.9×10^4 Candida albicans, SLU-1 in 100 μL intravenously via the tail vein in a single dosage on day zero (0). However, other routes of administration, including intraperitoneal (ip) and subcutaneous (sc) routes may be administered. Amphotericin B will provide complete protection at 0.5 mg/kg qod (100% survival). Mortality data will be subjected to Kaplan-Meier survival analysis. All treatment groups may be considered statistically significant vs. saline at p values <0.05.
Treatment begins immediately thereafter with 400 μL oral gavage of either 0.5% dextrose, or derivative compound in 0.5% dextrose at various dosage levels (e.g., 10 mg/kg or 20 mg/kg) according to a prescribed dosing regimen (e.g. every other day for a total of eight times). Amphotericin B (Fungizone®) is administered intravenously at 0.5 mg/kg as a positive control every other day for a total of eight times. Twice-day monitoring (once daily on weekends and holidays) for mortality is performed. The animals treated with antiflngal derivative compound show improvement in mortality compared with the dextrose-treated controls, preferably statistically significant improvement (p-value of […]).

[2] = designated CA-1, Strain SLU-1, 24 h
[3] = 30 mm^2 area of growth inhibition, calculated by PROBIT analysis

| Molecule | Broth Microdilution (MIC values in μg/mL C. albicans SLU1) [1, 2] [µg/mL] | Radial Diffusion (pmol to achieve 30 mm^2 zone C. albicans SLU1) (Candida albicans SLU-1; [3]) | other results |
| --- | --- | --- | --- |
| CC[C@@H](C)[C@@H](NC(=O)[C@@H](CC(C)C)NC(=O)[C@@H](Cc1c[nH]c2ccccc12)NC(=O)[C@@H](CCCCN)NC(=O)c1ccc2c(c1)-c1ccccc1-2)C(=O)N[C@H](CCC(N)=O)C(=O)N[C@H](CC(C)C)C(=O)N[C@H](Cc1ccccc1)C(=O)N[C@H](Cc1c[nH]cn1)C(=O)N[C@H](CCCCN)C(=O)N[C@H](CCCCN)C(N)=O [XMP.534] | 4 | >3,371 pmol | improvement in mortality compared with dextrose-treated controls (Candida albicans, SLU-1): did not exhibit statistically significant improvement |
| CC[C@@H](C)[C@@H](NC(=O)[C@@H](CC(C)C)NC(=O)[C@@H](Cc1c[nH]c2ccccc12)NC(=O)[C@@H](CCCCN)NC(=O)c1cc2ccccc2[nH]1)C(=O)N[C@H](CCC(N)=O)C(=O)N[C@H](CC(C)C)C(=O)N[C@H](Cc1ccccc1)C(=O)N[C@H](Cc1c[nH]cn1)C(=O)N[C@H](CCCCN)C(=O)N[C@H](CCCCN)C(N)=O [XMP.545] | 8 | 1,635 pmol |  |
| CC[C@@H](C)[C@@H](NC(=O)[C@@H](CC(C)C)NC(=O)[C@@H](Cc1c[nH]c2ccccc12)NC(=O)[C@@H](CCCCN)NC(=O)c1cccc(Cl)c1[N+](=O)[O-])C(=O)N[C@H](CCC(N)=O)C(=O)N[C@H](CC(C)C)C(=O)N[C@H](Cc1ccccc1)C(=O)N[C@H](Cc1c[nH]cn1)C(=O)N[C@H](CCCCN)C(=O)N[C@H](CCCCN)C(N)=O [XMP.618] | 4 | 2,146 pmol |  |
| CC[C@@H](C)[C@@H](NC(=O)[C@@H](CC(C)C)NC(=O)[C@@H](Cc1c[nH]c2ccccc12)NC(=O)[C@@H](CCCCN)NC(=O)c1cc2ccccc2o1)C(=O)N[C@H](CCC(N)=O)C(=O)N[C@H](CC(C)C)C(=O)N[C@H](Cc1ccccc1)C(=O)N[C@H](Cc1c[nH]cn1)C(=O)N[C@H](CCCCN)C(=O)N[C@H](CCCCN)C(N)=O [XMP.536] | 4 | >3,371 pmol |  |
| CC[C@@H](C)[C@@H](NC(=O)[C@@H](CC(C)C)NC(=O)[C@@H](Cc1c[nH]c2ccccc12)NC(=O)[C@@H](CCCCN)NC(C)=O)C(=O)N[C@H](CCC(N)=O)C(=O)N[C@H](CC(C)C)C(=O)N[C@H](Cc1ccccc1)C(=O)N[C@H](Cc1c[nH]cn1)C(=O)N[C@H](CCCCN)C(=O)N[C@H](CCCCNC(=O)CCCC[C@@H]1SC[C@@H]2NC(=O)N[C@@H]21)C(N)=O [XMP.518] | 8 | 484 pmol |  |
| CC[C@@H](C)[C@@H](NC(=O)[C@@H](CC(C)C)NC(=O)[C@@H](Cc1c[nH]c2ccccc12)NC(=O)[C@@H](CCCCN)NC(=O)c1c[nH]cn1)C(=O)N[C@H](CCC(N)=O)C(=O)N[C@H](CC(C)C)C(=O)N[C@H](Cc1ccccc1)C(=O)N[C@H](Cc1c[nH]cn1)C(=O)N[C@H](CCCCN)C(=O)N[C@H](CCCCN)C(N)=O [XMP.500] |  |  | improvement in mortality compared with dextrose-treated controls (Candida albicans, SLU-1): did not exhibit statistically significant improvement |
| C[C@@H]1[C@H](O)[C@@H](C)/C=C/C=C/C=C/C=C/C=C/C=C/C=C/[C@H](O[C@@H]2O[C@H](C)[C@@H](O)[C@H](N)[C@@H]2O)C[C@@H]2O[C@](O)(C[C@@H](O)C[C@@H](O)[C@H](O)CC[C@@H](O)C[C@@H](O)CC(=O)O[C@H]1C)C[C@H](O)[C@H]2C(=O)O [Amphotericin B, reference compound] |  |  | survival (Candida albicans, SLU-1; 0.5 mg/kg qod, positive control, 'will provide complete protection'): 100% |
| CC[C@@H](C)[C@@H](NC(=O)[C@@H](CC(C)C)NC(=O)[C@@H](Cc1c[nH]c2ccccc12)NC(=O)[C@@H](CCCCN)NC(C)=O)C(=O)N[C@H](CCC(N)=O)C(=O)N[C@H](CC(C)C)C(=O)N[C@H](Cc1ccccc1)C(=O)N[C@H](Cc1c[nH]cn1)C(=O)N[C@H](CCCCNC(=O)CCCC[C@@H]1SC[C@@H]2NC(=O)N[C@@H]21)C(=O)N[C@H](CCCCN)C(N)=O [XMP.521] | 16 | 959 pmol |  |
| CC[C@@H](C)[C@@H](NC(=O)[C@@H](CC(C)C)NC(=O)[C@@H](Cc1c[nH]c2ccccc12)NC(=O)[C@@H](CCCCN)NC(=O)c1ccc2ccccc2n1)C(=O)N[C@H](CCC(N)=O)C(=O)N[C@H](CC(C)C)C(=O)N[C@H](Cc1ccccc1)C(=O)N[C@H](Cc1c[nH]cn1)C(=O)N[C@H](CCCCN)C(=O)N[C@H](CCCCN)C(N)=O [XMP.596] | 2 | 3,140 pmol |  |
| CC[C@@H](C)[C@@H](NC(=O)[C@@H](CC(C)C)NC(=O)[C@@H](Cc1c[nH]c2ccccc12)NC(=O)[C@@H](CCCCN)NC(=O)c1nccc2ccccc12)C(=O)N[C@H](CCC(N)=O)C(=O)N[C@H](CC(C)C)C(=O)N[C@H](Cc1ccccc1)C(=O)N[C@H](Cc1c[nH]cn1)C(=O)N[C@H](CCCCN)C(=O)N[C@H](CCCCN)C(N)=O [XMP.546] | >64 | >3,371 pmol |  |
| XMP.535: peptide-based construct; derivatization not given in Table I (KWLIQLFHKK; XMP.535; Position 1 is derivatized at the alpha-amino with: anthraquinone carbonyl; Positions 1-10 are D-Amino Acids; AMIDATION=The C-terminus is Amidated) |  |  | Broth Microdilution (MIC values in μg/mL C. albicans SLU1) ([1]; C. albicans SLU1): b (no detectable activity up to 5 μg/well); Radial Diffusion (pmol to achieve 30 mm^2 zone C. albicans SLU1) (Candida albicans SLU-1): b (no detectable activity up to 5 μg/well) |
| CC[C@@H](C)[C@@H](NC(=O)[C@@H](CC(C)C)NC(=O)[C@@H](Cc1c[nH]c2ccccc12)NC(=O)[C@@H](CCCCN)NC(=O)CCCCCCCN)C(=O)N[C@H](CCC(N)=O)C(=O)N[C@H](CC(C)C)C(=O)N[C@H](Cc1ccccc1)C(=O)N[C@H](Cc1c[nH]cn1)C(=O)N[C@H](CCCCN)C(=O)N[C@H](CCCCN)C(N)=O [XMP.416] (H-[Aoc][dK][dW][dL][dI][dQ][dL][dF][dH][dK][dK]-NH2) | 1 | 410 pmol |  |
| XMP.503: R1 = pyridine carbonyl, R2 = R3 = H (KWLIQLFHKK; XMP.503; Position 1 is derivatized at the alpha-amino with: pyridine carbonyl; Positions 1-10 are D-Amino Acids; AMIDATION=The C-terminus is Amidated) |  |  | improvement in mortality compared with dextrose-treated controls (Candida albicans, SLU-1): did not exhibit statistically significant improvement |
